# Species: Rattus norvegicus
# Experiment: Open TG-GATES - Regimen: Daily Repeat
# Type: toxicity, organism-based, Sprague-Dawley
# Parameters: regimen Daily Repeat, gender Male, age 6 weeks
# Details: in vivo, po, route gavage; for APTT / Bas / Eos / Fbg / Hb / Ht / Lym / MCH / MCHC / MCV / Mono / Neu / PT / Plat / RBC / Ret / WBC: tissue Blood; for LIVER: tissue Liver; for A/G / ALP / ALT / AST / BUN / CRE / Ca / Cl / DBIL / GLC / IP / K / LDH / Na / PL / RALB / TBIL / TC / TG / TP / gamma-GTP: tissue Plasma
# [1] = 15 mg/kg, 72 h, dose level Middle, time 3 day
# [2] = 15 mg/kg, […], dose level Middle, time 7 day
# [3] = 15 mg/kg, […], dose level Middle, time 14 day
# [4] = 15 mg/kg, […], dose level Middle, time 28 day
# [5] = 50 mg/kg, 72 h, dose level High, time 3 day
# [6] = 50 mg/kg, […], dose level High, time 7 day
# [7] = 50 mg/kg, […], dose level High, time 14 day
# [8] = 50 mg/kg, […], dose level High, time 28 day
smiles,measurement,setting,value
C=C(C)[C@H]1Cc2c(ccc3c2O[C@@H]2COc4cc(OC)c(OC)cc4[C@@H]2C3=O)O1 [ROTENONE],TERMINAL_BW,[1],217.2 g
same,APTT,[1],15.9 s
same,Bas,[1],0%
same,Eos,[1],1%
same,Fbg,[1],211.8 mg/dL
same,Hb,[1],13.1 g/dL
same,Ht,[1],40.2%
same,Lym,[1],71%
same,MCH,[1],20.9 pg
same,MCHC,[1],32.7%
same,MCV,[1],63.9 fL
same,Mono,[1],7.8%
same,Neu,[1],20.4%
same,PT,[1],11.8 s
same,Plat,[1],122 x10_4/uL
same,RBC,[1],628.8 x10_4/ul
same,Ret,[1],6.1%
same,WBC,[1],99.8 x10_2/uL
same,LIVER,[1],10.7 g
same,A/G,[1],2.2
same,ALP,[1],1449.2 IU/L
same,ALT,[1],37.8 IU/L
same,AST,[1],70.6 IU/L
same,BUN,[1],17 mg/dL
same,CRE,[1],0.4 mg/dL
same,Ca,[1],11.8 mg/dL
same,Cl,[1],104.2 meq/L
same,DBIL,[1],0.014 mg/dL
same,GLC,[1],188.4 mg/dL
same,IP,[1],7.3 mg/dL
same,K,[1],4.3 meq/L
same,LDH,[1],117 IU/L
same,Na,[1],141.8 meq/L
same,PL,[1],149.8 mg/dL
same,RALB,[1],3.7 g/dL
same,TBIL,[1],0.038 mg/dL
same,TC,[1],79.2 mg/dL
same,TG,[1],104.8 mg/dL
same,TP,[1],5.5 g/dL
same,gamma-GTP,[1],0.6 IU/L
same,TERMINAL_BW,[2],254.3 g
same,TERMINAL_BW,[3],305.1 g
same,TERMINAL_BW,[4],389.3 g
same,APTT,[2],17 s
same,Bas,[2],0%
same,Eos,[2],1%
same,Fbg,[2],237.8 mg/dL
same,Hb,[2],13.3 g/dL
same,Ht,[2],40.4%
same,Lym,[2],74.2%
same,MCH,[2],20.6 pg
same,MCHC,[2],32.8%
same,MCV,[2],62.9 fL
same,Mono,[2],5.8%
same,Neu,[2],19.2%
same,PT,[2],11.4 s
same,Plat,[2],140.2 x10_4/uL
same,RBC,[2],643.4 x10_4/ul
same,Ret,[2],5%
same,WBC,[2],113.4 x10_2/uL
same,APTT,[3],15.6 s
same,Bas,[3],0%
same,Eos,[3],1%
same,Fbg,[3],240.8 mg/dL
same,Hb,[3],13.8 g/dL
same,Ht,[3],41.7%
same,Lym,[3],75.2%
same,MCH,[3],20.6 pg
same,MCHC,[3],33%
same,MCV,[3],62.3 fL
same,Mono,[3],3.8%
same,Neu,[3],20.2%
same,PT,[3],11.5 s
same,Plat,[3],130 x10_4/uL
same,RBC,[3],670.4 x10_4/ul
same,Ret,[3],3.8%
same,WBC,[3],127.2 x10_2/uL
same,APTT,[4],18 s
same,Bas,[4],0%
same,Eos,[4],1.2%
same,Fbg,[4],196.8 mg/dL
same,Hb,[4],14.9 g/dL
same,Ht,[4],45.4%
same,Lym,[4],77.8%
same,MCH,[4],18.9 pg
same,MCHC,[4],32.8%
same,MCV,[4],57.7 fL
same,Mono,[4],5%
same,Neu,[4],16.2%
same,PT,[4],12.5 s
same,Plat,[4],126.2 x10_4/uL
same,RBC,[4],786 x10_4/ul
same,Ret,[4],1.8%
same,WBC,[4],111.5 x10_2/uL
same,LIVER,[2],13 g
same,LIVER,[3],14.1 g
same,LIVER,[4],17.3 g
same,A/G,[2],2.2
same,ALP,[2],1376.6 IU/L
same,ALT,[2],35.4 IU/L
same,AST,[2],67 IU/L
same,BUN,[2],17.2 mg/dL
same,CRE,[2],0.4 mg/dL
same,Ca,[2],11.5 mg/dL
same,Cl,[2],103.2 meq/L
same,DBIL,[2],0.016 mg/dL
same,GLC,[2],198.6 mg/dL
same,IP,[2],7.4 mg/dL
same,K,[2],4.3 meq/L
same,LDH,[2],110.8 IU/L
same,Na,[2],140.4 meq/L
same,PL,[2],150.6 mg/dL
same,RALB,[2],3.8 g/dL
same,TBIL,[2],0.036 mg/dL
same,TC,[2],82.4 mg/dL
same,TG,[2],105.2 mg/dL
same,TP,[2],5.6 g/dL
same,gamma-GTP,[2],1 IU/L
same,A/G,[3],2.1
same,ALP,[3],1261.6 IU/L
same,ALT,[3],36.2 IU/L
same,AST,[3],68.4 IU/L
same,BUN,[3],18.4 mg/dL
same,CRE,[3],0.4 mg/dL
same,Ca,[3],11.6 mg/dL
same,Cl,[3],105 meq/L
same,DBIL,[3],0.01 mg/dL
same,GLC,[3],188.6 mg/dL
same,IP,[3],6.9 mg/dL
same,K,[3],4.4 meq/L
same,LDH,[3],103.6 IU/L
same,Na,[3],139.6 meq/L
same,PL,[3],140 mg/dL
same,RALB,[3],3.9 g/dL
same,TBIL,[3],0.028 mg/dL
same,TC,[3],77.4 mg/dL
same,TG,[3],95.2 mg/dL
same,TP,[3],5.7 g/dL
same,gamma-GTP,[3],1 IU/L
same,A/G,[4],2
same,ALP,[4],1146.8 IU/L
same,ALT,[4],29.2 IU/L
same,AST,[4],62 IU/L
same,BUN,[4],19.5 mg/dL
same,CRE,[4],0.4 mg/dL
same,Ca,[4],10.9 mg/dL
same,Cl,[4],105.2 meq/L
same,DBIL,[4],0.01 mg/dL
same,GLC,[4],186 mg/dL
same,IP,[4],5.7 mg/dL
same,K,[4],4.5 meq/L
same,LDH,[4],124.8 IU/L
same,Na,[4],141 meq/L
same,PL,[4],150.8 mg/dL
same,RALB,[4],3.9 g/dL
same,TBIL,[4],0.0325 mg/dL
same,TC,[4],68.5 mg/dL
same,TG,[4],180.2 mg/dL
same,TP,[4],5.9 g/dL
same,gamma-GTP,[4],1 IU/L
same,TERMINAL_BW,[5],199.2 g
same,APTT,[5],16.3 s
same,Bas,[5],0%
same,Eos,[5],0.8%
same,Fbg,[5],198.6 mg/dL
same,Hb,[5],13.7 g/dL
same,Ht,[5],41.6%
same,Lym,[5],72.4%
same,MCH,[5],21 pg
same,MCHC,[5],32.9%
same,MCV,[5],64 fL
same,Mono,[5],8%
same,Neu,[5],18.8%
same,PT,[5],12.2 s
same,Plat,[5],126.4 x10_4/uL
same,RBC,[5],649.4 x10_4/ul
same,Ret,[5],3.3%
same,WBC,[5],91.2 x10_2/uL
same,LIVER,[5],9.9 g
same,A/G,[5],2.4
same,ALP,[5],1100.4 IU/L
same,ALT,[5],25.4 IU/L
same,AST,[5],65.4 IU/L
same,BUN,[5],16 mg/dL
same,CRE,[5],0.4 mg/dL
same,Ca,[5],11.8 mg/dL
same,Cl,[5],106.6 meq/L
same,DBIL,[5],0.01 mg/dL
same,GLC,[5],191.2 mg/dL
same,IP,[5],7.5 mg/dL
same,K,[5],4.2 meq/L
same,LDH,[5],93.8 IU/L
same,Na,[5],142.8 meq/L
same,PL,[5],136.4 mg/dL
same,RALB,[5],3.9 g/dL
same,TBIL,[5],0.034 mg/dL
same,TC,[5],82.6 mg/dL
same,TG,[5],52.6 mg/dL
same,TP,[5],5.5 g/dL
same,gamma-GTP,[5],0.8 IU/L
same,TERMINAL_BW,[6],230.8 g
same,TERMINAL_BW,[7],251.7 g
same,TERMINAL_BW,[8],288.8 g
same,APTT,[6],16.5 s
same,Bas,[6],0%
same,Eos,[6],0.6%
same,Fbg,[6],196.4 mg/dL
same,Hb,[6],13.5 g/dL
same,Ht,[6],41.1%
same,Lym,[6],74.8%
same,MCH,[6],21 pg
same,MCHC,[6],32.9%
same,MCV,[6],63.9 fL
same,Mono,[6],6%
same,Neu,[6],18.6%
same,PT,[6],12 s
same,Plat,[6],117.6 x10_4/uL
same,RBC,[6],643.6 x10_4/ul
same,Ret,[6],4.2%
same,WBC,[6],95.8 x10_2/uL
same,APTT,[7],16.5 s
same,Bas,[7],0%
same,Eos,[7],0.8%
same,Fbg,[7],190.2 mg/dL
same,Hb,[7],14.7 g/dL
same,Ht,[7],44.3%
same,Lym,[7],69.4%
same,MCH,[7],20 pg
same,MCHC,[7],33.1%
same,MCV,[7],60.5 fL
same,Mono,[7],7.4%
same,Neu,[7],22.4%
same,PT,[7],12.6 s
same,Plat,[7],128.2 x10_4/uL
same,RBC,[7],733.8 x10_4/ul
same,Ret,[7],3.6%
same,WBC,[7],98.4 x10_2/uL
same,APTT,[8],19.4 s
same,Bas,[8],0%
same,Eos,[8],0.6%
same,Fbg,[8],163.2 mg/dL
same,Hb,[8],16 g/dL
same,Ht,[8],48.6%
same,Lym,[8],80%
same,MCH,[8],18.8 pg
same,MCHC,[8],33%
same,MCV,[8],56.9 fL
same,Mono,[8],4.2%
same,Neu,[8],15%
same,PT,[8],14.2 s
same,Plat,[8],117.8 x10_4/uL
same,RBC,[8],859 x10_4/ul
same,Ret,[8],1.5%
same,WBC,[8],88.4 x10_2/uL
same,LIVER,[6],12.9 g
same,LIVER,[7],13.1 g
same,LIVER,[8],12 g
same,A/G,[6],2.2
same,ALP,[6],1181.6 IU/L
same,ALT,[6],26.2 IU/L
same,AST,[6],65.8 IU/L
same,BUN,[6],18 mg/dL
same,CRE,[6],0.4 mg/dL
same,Ca,[6],11.7 mg/dL
same,Cl,[6],104 meq/L
same,DBIL,[6],0.014 mg/dL
same,GLC,[6],198.6 mg/dL
same,IP,[6],6.4 mg/dL
same,K,[6],4.2 meq/L
same,LDH,[6],103.6 IU/L
same,Na,[6],141 meq/L
same,PL,[6],137.4 mg/dL
same,RALB,[6],4 g/dL
same,TBIL,[6],0.022 mg/dL
same,TC,[6],73 mg/dL
same,TG,[6],80 mg/dL
same,TP,[6],5.8 g/dL
same,gamma-GTP,[6],0.8 IU/L
same,A/G,[7],2.4
same,ALP,[7],1140.4 IU/L
same,ALT,[7],43.2 IU/L
same,AST,[7],101.8 IU/L
same,BUN,[7],22.4 mg/dL
same,CRE,[7],0.4 mg/dL
same,Ca,[7],11.5 mg/dL
same,Cl,[7],105.2 meq/L
same,DBIL,[7],0.014 mg/dL
same,GLC,[7],178.8 mg/dL
same,IP,[7],7.4 mg/dL
same,K,[7],4.3 meq/L
same,LDH,[7],108.4 IU/L
same,Na,[7],140.6 meq/L
same,PL,[7],145.8 mg/dL
same,RALB,[7],3.9 g/dL
same,TBIL,[7],0.032 mg/dL
same,TC,[7],68.4 mg/dL
same,TG,[7],121.2 mg/dL
same,TP,[7],5.6 g/dL
same,gamma-GTP,[7],1 IU/L
same,A/G,[8],2.2
same,ALP,[8],639.6 IU/L
same,ALT,[8],20.2 IU/L
same,AST,[8],53 IU/L
same,BUN,[8],20.8 mg/dL
same,CRE,[8],0.4 mg/dL
same,Ca,[8],10.6 mg/dL
same,Cl,[8],107 meq/L
same,DBIL,[8],0.01 mg/dL
same,GLC,[8],188.2 mg/dL
same,IP,[8],5.9 mg/dL
same,K,[8],4.4 meq/L
same,LDH,[8],79 IU/L
same,Na,[8],142.8 meq/L
same,PL,[8],122.4 mg/dL
same,RALB,[8],3.9 g/dL
same,TBIL,[8],0.038 mg/dL
same,TC,[8],67.6 mg/dL
same,TG,[8],65.2 mg/dL
same,TP,[8],5.8 g/dL
same,gamma-GTP,[8],1 IU/L

# — ChEMBL document CHEMBL3885861, “Open TG-GATES”
